Results reported in ChEMBL document CHEMBL3112458, “A biochemical screen for GroEL/GroES inhibitors” (Bioorg Med Chem Lett, 2014).

Assays:
E. coli GroEL/ES [1] = target: T1, E. coli GroEL/ES (Escherichia coli, UniProt P0A6F5); assay: Inhibition of Escherichia coli GroEL/GroES-ATPase activity expressed in Escherichia coli DH5alpha/BL21 (DE3) assessed as inhibition of denatured MDH refolding preincubated for 10 mins followed by ATP addition measured after 2 hrs by fluorescence based assay
E. coli GroEL/ES [2] = target: T1, E. coli GroEL/ES; assay: Inhibition of Escherichia coli GroEL/GroES expressed in Escherichia coli DH5alpha/BL21 (DE3) assessed as inhibition of denatured MDH refolding preincubated for 10 mins followed by ATP addition measured after 2 hrs by fluorescence based assay
[3] = Inhibition of pig heart MDH using […] as substrate; parameters: species or system Sus scrofa

T1 sequence (P0A6F5 whole entry, looked up): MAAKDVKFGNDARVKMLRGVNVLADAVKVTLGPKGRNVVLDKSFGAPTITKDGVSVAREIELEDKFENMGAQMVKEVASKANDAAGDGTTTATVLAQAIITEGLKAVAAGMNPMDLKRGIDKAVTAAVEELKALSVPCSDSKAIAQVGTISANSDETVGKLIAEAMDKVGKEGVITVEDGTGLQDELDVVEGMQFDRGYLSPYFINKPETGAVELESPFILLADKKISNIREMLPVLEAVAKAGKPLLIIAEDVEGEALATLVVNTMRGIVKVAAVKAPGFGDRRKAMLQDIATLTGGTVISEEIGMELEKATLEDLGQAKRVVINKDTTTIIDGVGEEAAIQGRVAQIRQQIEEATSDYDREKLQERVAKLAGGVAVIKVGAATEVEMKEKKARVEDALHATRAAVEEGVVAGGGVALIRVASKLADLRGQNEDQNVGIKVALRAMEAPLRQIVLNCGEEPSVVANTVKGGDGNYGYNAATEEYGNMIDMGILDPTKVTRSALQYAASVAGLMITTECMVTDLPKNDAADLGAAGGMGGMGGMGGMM

Row | Compound | IC50 (E. coli GroEL/ES [1]) [µM] | IC50 (E. coli GroEL/ES [2]) [µM] | IC50 [3] [µM]
1 | Cc1ccc(-c2ccc(NC(=O)/C=C/c3ccco3)cc2)o1 | > 250 | > 100 | > 62.5
2 | CNC(=O)Nc1ccc2nc(-c3ccco3)c(-c3ccco3)nc2c1 | > 250 | 5.4 | > 62.5
3 | O=c1c([N+](=O)[O-])c(Cl)c2ccccc2n1Cc1ccccc1 | > 250 | 8.8 | > 62.5
4 | Cc1ccc(S(=O)(=O)Nc2ccc(-c3nc4ccc(NS(=O)(=O)c5ccc(C)cc5)cc4[nH]3)cc2)cc1 | 0.06 | 0.11 | > 62.5
5 | O=C1NC(=S)N(Cc2ccco2)C(=O)/C1=C\c1ccc(-c2ccc([N+](=O)[O-])cc2)o1 | 150 | 0.7 | 19
6 | Cc1ccc(C)n1-c1ccc(O)c(C(=O)O)c1 | > 250 | 0.62 | > 62.5
7 | O=C(Nc1ccc(Sc2nc3ccccc3s2)c(Cl)c1)c1cc(Br)cc(Br)c1O | 13 | 1.7 | 5.5
8 | O=C(CC1Nc2cccc3cccc(c23)NC1=O)Nc1cccc([N+](=O)[O-])c1 (stereo not given) | 52 | 97 | > 62.5
9 | COC(=O)c1ccc(-c2ccc(/C=C3/SC(=S)NC3=O)o2)cc1 | 131 | 8.4 | > 62.5
10 | CNC(=O)Oc1c(Br)cc2sc(=O)oc2c1Br | 236 | 35 | > 62.5
11 | O=C(NCCO)Nc1ccc2nc(-c3ccco3)c(-c3ccco3)nc2c1 | > 250 | 23 | > 62.5
12 | CN(C)c1ccc(/C=C2/C(=O)NC(=S)N(Cc3ccco3)C2=O)cc1 | 169 | 5.9 | > 62.5
13 | O=c1[nH]nc2cc(O)c3ccccc3n12 | > 250 | 11 | > 62.5
14 | Nc1nnc(SCC(=O)c2ccc(-c3ccccc3)cc2)s1 | > 250 | > 100 | > 62.5
15 | Oc1ccc(NCn2nnc3ccccc32)cc1 | 130 | 55 | > 62.5
16 | COc1ccc(C(=O)N/N=C/c2ccc(O)c3ncccc23)cc1 | > 250 | 70 | > 62.5
17 | O=C(O)c1ccc(-c2nc(-c3ccc(-c4ccc(-c5nc(-c6ccc(C(=O)O)cc6)[nH]c5-c5ccccc5)cc4)cc3)c(-c3ccccc3)[nH]2)cc1 | 25 | 0.44 | 57
18 | Cc1ccc(/C=C2/SC(=S)N(c3ccc(C(=O)O)c(O)c3)C2=O)o1 | 48 | 6.1 | > 62.5

Row | Compound | IC50 (E. coli GroEL/ES [1]) [µM] | IC50 (E. coli GroEL/ES [2]) [µM] | IC50 [3] [µM]
19 | COc1cccc(/C=C2/SC(=S)N(CCC(=O)Nc3ccc(O)cc3)C2=O)c1 | > 250 | 33 | > 62.5
20 | O=C(/C=C/c1cccc([N+](=O)[O-])c1)c1ccc(NC(=O)c2ccco2)cc1 | > 250 | 1.8 | > 62.5
21 | CC(=O)c1cc2c(cc1NC(=O)c1ccccc1Br)OCCO2 | > 250 | > 100 | > 62.5
22 | O=C(/C=C/c1ccco1)c1ccc(NC(=O)c2cccs2)cc1 | 157 | 17 | > 62.5
23 | O=C(/C=C/c1ccc([N+](=O)[O-])cc1)c1ccc(O)c(O)c1 | 71 | 2.4 | > 62.5
24 | O=C(Nc1ccc2nc(-c3ccco3)c(-c3ccco3)nc2c1)N1CCCC1 | > 250 | 14 | > 62.5
25 | O=C(Nc1cc([N+](=O)[O-])ccc1O)c1ccc2c(c1)C(=O)N(Cc1ccccc1)C2=O | > 250 | 52 | > 62.5
26 | O=C(O)C1Nc2ccc(Cl)cc2C2C=CCC12 (stereo not given) | 68 | 2.7 | > 62.5
27 | O=c1/c(=C/c2ccc(O)c(O)c2)sc2nc3ccccc3n12 | 9.8 | 1.3 | > 62.5
28 | COc1cc(/C=C2/C(=N)N3N=C(CC(C)C)SC3=NC2=O)ccc1OC(=O)c1ccc(F)cc1 | > 250 | > 100 | > 62.5
29 | O=C(O)c1cccc2c1NC(c1cccc(Br)c1)C1CC=CC21 (stereo not given) | 44 | 2.7 | 50
30 | O=C1/C(=C/c2ccc(O)c(O)c2)SC(=S)N1c1ccc(O)cc1 | 3.3 | 0.99 | > 62.5
31 | Nc1ccc(Nc2nc(-c3ccc(O)c(O)c3)cs2)cc1 | 23 | 5.9 | > 62.5
32 | CCOc1ccc(N2C(=O)NC(=O)/C(=C/c3ccc(O)c(O)c3)C2=O)cc1 | 217 | 24 | > 62.5
33 | O=C1NC(=S)N(c2ccc(F)cc2)C(=O)/C1=C/c1ccco1 | 25 | 1.2 | 20
34 | O=C(O)c1cccc2c1NC(c1ccccc1F)C1CC=CC21 (stereo not given) | 95 | 9.1 | > 62.5
35 | Cn1c(=O)c(C(=O)Nc2ccncc2)c(O)c2ccccc21 | > 250 | 7.3 | > 62.5
